In ChEMBL document CHEMBL1145498, “A systematic interaction map of validated kinase inhibitors with Ser/Thr kinases” (Proc Natl Acad Sci U S A, 2007):
Values belong to the compound of their own block, whether it stands above or below them.

What was measured:
[1] = target: T1, Cyclin-dependent kinase 1 (Homo sapiens, UniProt P06493); experiment: Inhibition of p34cdc2
[2] = target: Mitogen-activated protein kinase kinase kinase 8 (Homo sapiens, UniProt P41279); experiment: Inhibition of Tpl2 kinase
Mitogen-activated protein kinase kinase kinase 8, sequence (P41279 whole entry): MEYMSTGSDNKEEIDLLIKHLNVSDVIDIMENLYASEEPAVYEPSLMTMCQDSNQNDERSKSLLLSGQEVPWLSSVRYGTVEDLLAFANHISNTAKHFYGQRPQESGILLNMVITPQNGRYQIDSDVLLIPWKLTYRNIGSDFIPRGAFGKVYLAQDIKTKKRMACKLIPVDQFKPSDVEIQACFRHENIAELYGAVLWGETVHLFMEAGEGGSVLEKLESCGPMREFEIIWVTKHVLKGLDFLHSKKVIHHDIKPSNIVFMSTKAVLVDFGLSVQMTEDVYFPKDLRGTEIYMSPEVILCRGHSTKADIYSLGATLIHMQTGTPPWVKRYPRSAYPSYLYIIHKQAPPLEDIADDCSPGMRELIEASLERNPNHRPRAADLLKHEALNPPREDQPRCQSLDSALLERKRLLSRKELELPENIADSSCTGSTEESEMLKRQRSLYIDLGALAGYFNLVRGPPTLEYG

[3] = target: Dual specificity mitogen-activated protein kinase kinase 1 (Homo sapiens, UniProt Q02750)
Dual specificity mitogen-activated protein kinase kinase 1, sequence (Q02750 whole entry): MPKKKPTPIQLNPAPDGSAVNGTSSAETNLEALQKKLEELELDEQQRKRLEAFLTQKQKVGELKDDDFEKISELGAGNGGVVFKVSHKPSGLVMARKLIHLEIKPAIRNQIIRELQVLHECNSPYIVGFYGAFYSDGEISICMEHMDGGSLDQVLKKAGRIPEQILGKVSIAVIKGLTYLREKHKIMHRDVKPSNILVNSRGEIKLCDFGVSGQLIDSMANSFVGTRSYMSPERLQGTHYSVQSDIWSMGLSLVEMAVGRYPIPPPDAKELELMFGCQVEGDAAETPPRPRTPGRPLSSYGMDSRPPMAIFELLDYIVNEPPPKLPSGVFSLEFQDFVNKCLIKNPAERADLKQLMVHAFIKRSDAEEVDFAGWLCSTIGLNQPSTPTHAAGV

[4] = Inhibition of p34cdc2/cyclin B
[5] = test system: PBMC; experiment: Inhibition of LPS-stimulated IL1 release in human PBMC; format: functional, cell-based
[6] = organism: Rattus norvegicus; experiment: Antiangiogenic activity in rat aortic ring model at 10000 nM; format: functional; conditions: Aorta
[7] = target: Tyrosine-protein kinase ZAP-70 (Homo sapiens, UniProt P43403); experiment: Inhibition of ZAP70
[8] = test system: RBL-2H3; experiment: Inhibition of FcepsilonRI-mediated 5-HT release in rat RBL2H3 cells; format: functional, cell-based
[9] = target: Tyrosine-protein kinase ITK/TSK (Homo sapiens, UniProt Q08881); experiment: Inhibition of Itk
[10] = Inhibition of Aurora kinase B
[11] = target: T1, Cyclin-dependent kinase 1; experiment: Inhibition of Cdk1
[12] = target: Mast/stem cell growth factor receptor Kit (Homo sapiens, UniProt P10721); experiment: Inhibition of c-kit
Mast/stem cell growth factor receptor Kit, sequence (P10721 whole entry): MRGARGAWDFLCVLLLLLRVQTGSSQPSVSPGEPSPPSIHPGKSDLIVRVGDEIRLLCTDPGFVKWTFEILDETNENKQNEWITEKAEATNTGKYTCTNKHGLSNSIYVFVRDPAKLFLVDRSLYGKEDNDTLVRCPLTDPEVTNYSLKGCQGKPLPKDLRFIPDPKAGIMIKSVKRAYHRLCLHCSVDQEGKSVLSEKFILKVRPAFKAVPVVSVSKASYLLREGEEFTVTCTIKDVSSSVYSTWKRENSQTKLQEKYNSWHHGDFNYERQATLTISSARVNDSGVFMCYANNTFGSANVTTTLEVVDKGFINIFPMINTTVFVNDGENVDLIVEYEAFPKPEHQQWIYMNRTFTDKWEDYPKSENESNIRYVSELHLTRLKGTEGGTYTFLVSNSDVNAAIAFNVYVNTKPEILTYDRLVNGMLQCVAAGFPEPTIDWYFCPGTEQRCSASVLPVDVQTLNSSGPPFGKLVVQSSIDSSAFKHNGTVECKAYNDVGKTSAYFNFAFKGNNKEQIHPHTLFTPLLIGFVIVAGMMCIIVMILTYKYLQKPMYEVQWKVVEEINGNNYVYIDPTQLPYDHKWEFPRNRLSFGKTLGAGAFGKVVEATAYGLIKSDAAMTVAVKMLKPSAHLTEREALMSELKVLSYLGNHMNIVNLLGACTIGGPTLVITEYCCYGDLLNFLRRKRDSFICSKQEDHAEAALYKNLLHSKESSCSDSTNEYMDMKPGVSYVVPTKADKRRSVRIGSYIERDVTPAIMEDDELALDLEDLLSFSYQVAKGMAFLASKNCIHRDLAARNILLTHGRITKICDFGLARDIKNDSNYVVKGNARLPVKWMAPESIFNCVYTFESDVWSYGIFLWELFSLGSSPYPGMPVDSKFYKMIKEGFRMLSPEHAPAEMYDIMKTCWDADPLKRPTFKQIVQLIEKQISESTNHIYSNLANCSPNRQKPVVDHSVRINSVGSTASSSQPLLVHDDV

[13] = target: Platelet-derived growth factor receptor alpha (Homo sapiens, UniProt P16234); experiment: Inhibition of PDGFRalpha
[14] = target: Receptor tyrosine-protein kinase erbB-4 (Homo sapiens, UniProt Q15303); experiment: Inhibition of erbB4/Her4
[15] = target: Epidermal growth factor receptor (Homo sapiens, UniProt P00533, L858R); experiment: Inhibition of EGFR L858R mutant; format: protein assay
[16] = Inhibition of GSK3
[17] = Inhibition of diacylglycerol kinase in isolated platelet membrane; format: cell membranes
[18] = Inhibition of MAPK
[19] = target: Cyclin-dependent kinase 7 (Homo sapiens, UniProt P50613); experiment: Inhibition of Cdk7
[20] = target: Tyrosine-protein kinase Lyn (Homo sapiens, UniProt P07948); experiment: Inhibition of Lyn kinase
[21] = target: Tyrosine-protein kinase Yes (Homo sapiens, UniProt P07947); experiment: Inhibition of Yes kinase
[22] = Binding affinity at PKC
[23] = Binding affinity at PKA
[24] = target: Dual specificity mitogen-activated protein kinase kinase 2 (Homo sapiens, UniProt P36507)
[25] = Inhibition of JNK
[26] = target: Transcription factor Jun (Homo sapiens, UniProt P05412); experiment: Inhibition of AP1 activity
[27] = Inhibition of NS3-associated HCV viral helicase activity using RNA substrate; design: species or system Hepacivirus hominis
[28] = Inhibition of MKK3/p38
[29] = target: Dual specificity mitogen-activated protein kinase kinase 4 (Homo sapiens, UniProt P45985); experiment: Inhibition of MKK4
[30] = target: RAC-alpha serine/threonine-protein kinase (Homo sapiens, UniProt P31749); experiment: Inhibition of AKT
[31] = Inhibition of MEK
[32] = target: Mitogen-activated protein kinase 1 (Homo sapiens, UniProt P28482); experiment: Inhibition of ERK2
[33] = test system: T-cell; experiment: Effect of gamma irradiation-induced apoptosis in human CD8+ T cells; format: functional, cell-based; conditions: light or radiation study
[34] = test system: T-cell; experiment: Effect of gamma irradiation-induced apoptosis in human CD4+ T cells; format: functional, cell-based; conditions: light or radiation study
[35] = test system: NT2; experiment: Cell cycle arrest in human NT2 cells assessed as accumulation at G2 phase; format: functional, cell-based
[36] = test system: NT2; experiment: Cell cycle arrest in human NT2 cells assessed as accumulation at G1 phase; format: functional, cell-based
[37] = target: Serine/threonine-protein kinase Chk2 (Homo sapiens, UniProt O96017)
[38] = target: Mitogen-activated protein kinase 14 (Homo sapiens, UniProt Q16539); experiment: Inhibition of SAPK2a/p38-alpha
[39] = Antiproliferative activity against human SUM-159 cells; format: functional, cell-based; conditions: SUM-159-PT
[40] = test system: A549; experiment: Antiproliferative activity against human A549 cells; format: functional, cell-based
[41] = target: T2, Insulin-like growth factor 1 receptor (Homo sapiens, UniProt P08069); experiment: Inhibition of IGF1R autophosphorylation in human MCF7 cells; format: cell-based
T2 sequence (P08069 31-736 limits assumed): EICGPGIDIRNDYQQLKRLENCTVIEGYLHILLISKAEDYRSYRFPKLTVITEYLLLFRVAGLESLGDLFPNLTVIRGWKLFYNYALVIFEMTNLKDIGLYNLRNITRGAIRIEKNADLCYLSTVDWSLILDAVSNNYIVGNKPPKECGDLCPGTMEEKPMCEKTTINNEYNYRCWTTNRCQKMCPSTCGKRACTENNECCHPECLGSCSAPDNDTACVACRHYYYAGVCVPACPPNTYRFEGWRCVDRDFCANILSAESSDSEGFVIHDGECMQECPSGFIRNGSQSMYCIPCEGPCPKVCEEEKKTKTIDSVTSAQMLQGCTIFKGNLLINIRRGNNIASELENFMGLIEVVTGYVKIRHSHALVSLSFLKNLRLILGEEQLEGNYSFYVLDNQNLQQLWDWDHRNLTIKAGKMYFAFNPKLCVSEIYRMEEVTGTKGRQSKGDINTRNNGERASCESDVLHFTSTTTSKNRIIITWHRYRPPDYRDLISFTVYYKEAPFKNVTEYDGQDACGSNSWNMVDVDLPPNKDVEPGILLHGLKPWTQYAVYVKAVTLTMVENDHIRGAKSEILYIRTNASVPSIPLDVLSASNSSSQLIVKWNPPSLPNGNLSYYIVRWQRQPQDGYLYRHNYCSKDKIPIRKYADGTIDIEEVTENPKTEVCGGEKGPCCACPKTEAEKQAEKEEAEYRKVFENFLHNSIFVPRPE
T2 sequence (P08069 741-1367 limits assumed): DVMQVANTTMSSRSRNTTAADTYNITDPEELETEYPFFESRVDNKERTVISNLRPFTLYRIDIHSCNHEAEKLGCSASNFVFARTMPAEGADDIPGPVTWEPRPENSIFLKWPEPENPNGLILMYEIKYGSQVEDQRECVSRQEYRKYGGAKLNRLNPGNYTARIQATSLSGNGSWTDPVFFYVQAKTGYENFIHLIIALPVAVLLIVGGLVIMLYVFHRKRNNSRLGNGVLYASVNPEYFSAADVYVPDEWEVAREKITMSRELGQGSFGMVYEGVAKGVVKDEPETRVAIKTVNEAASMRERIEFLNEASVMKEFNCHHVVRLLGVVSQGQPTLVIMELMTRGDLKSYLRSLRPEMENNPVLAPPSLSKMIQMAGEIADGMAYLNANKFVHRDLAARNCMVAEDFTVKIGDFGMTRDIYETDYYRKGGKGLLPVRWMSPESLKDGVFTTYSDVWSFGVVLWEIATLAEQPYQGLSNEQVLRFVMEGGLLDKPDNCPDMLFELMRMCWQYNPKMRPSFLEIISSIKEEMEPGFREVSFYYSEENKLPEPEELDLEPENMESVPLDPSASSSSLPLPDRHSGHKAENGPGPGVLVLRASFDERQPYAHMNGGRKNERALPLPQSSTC

[42] = target: T2, Insulin-like growth factor 1 receptor; experiment: Inhibition of IGF1R autophosphorylation
[43] = target: Vascular endothelial growth factor receptor 3 (Homo sapiens, UniProt P35916); experiment: Inhibition of VEGFR3
Vascular endothelial growth factor receptor 3, sequence (P35916 whole entry): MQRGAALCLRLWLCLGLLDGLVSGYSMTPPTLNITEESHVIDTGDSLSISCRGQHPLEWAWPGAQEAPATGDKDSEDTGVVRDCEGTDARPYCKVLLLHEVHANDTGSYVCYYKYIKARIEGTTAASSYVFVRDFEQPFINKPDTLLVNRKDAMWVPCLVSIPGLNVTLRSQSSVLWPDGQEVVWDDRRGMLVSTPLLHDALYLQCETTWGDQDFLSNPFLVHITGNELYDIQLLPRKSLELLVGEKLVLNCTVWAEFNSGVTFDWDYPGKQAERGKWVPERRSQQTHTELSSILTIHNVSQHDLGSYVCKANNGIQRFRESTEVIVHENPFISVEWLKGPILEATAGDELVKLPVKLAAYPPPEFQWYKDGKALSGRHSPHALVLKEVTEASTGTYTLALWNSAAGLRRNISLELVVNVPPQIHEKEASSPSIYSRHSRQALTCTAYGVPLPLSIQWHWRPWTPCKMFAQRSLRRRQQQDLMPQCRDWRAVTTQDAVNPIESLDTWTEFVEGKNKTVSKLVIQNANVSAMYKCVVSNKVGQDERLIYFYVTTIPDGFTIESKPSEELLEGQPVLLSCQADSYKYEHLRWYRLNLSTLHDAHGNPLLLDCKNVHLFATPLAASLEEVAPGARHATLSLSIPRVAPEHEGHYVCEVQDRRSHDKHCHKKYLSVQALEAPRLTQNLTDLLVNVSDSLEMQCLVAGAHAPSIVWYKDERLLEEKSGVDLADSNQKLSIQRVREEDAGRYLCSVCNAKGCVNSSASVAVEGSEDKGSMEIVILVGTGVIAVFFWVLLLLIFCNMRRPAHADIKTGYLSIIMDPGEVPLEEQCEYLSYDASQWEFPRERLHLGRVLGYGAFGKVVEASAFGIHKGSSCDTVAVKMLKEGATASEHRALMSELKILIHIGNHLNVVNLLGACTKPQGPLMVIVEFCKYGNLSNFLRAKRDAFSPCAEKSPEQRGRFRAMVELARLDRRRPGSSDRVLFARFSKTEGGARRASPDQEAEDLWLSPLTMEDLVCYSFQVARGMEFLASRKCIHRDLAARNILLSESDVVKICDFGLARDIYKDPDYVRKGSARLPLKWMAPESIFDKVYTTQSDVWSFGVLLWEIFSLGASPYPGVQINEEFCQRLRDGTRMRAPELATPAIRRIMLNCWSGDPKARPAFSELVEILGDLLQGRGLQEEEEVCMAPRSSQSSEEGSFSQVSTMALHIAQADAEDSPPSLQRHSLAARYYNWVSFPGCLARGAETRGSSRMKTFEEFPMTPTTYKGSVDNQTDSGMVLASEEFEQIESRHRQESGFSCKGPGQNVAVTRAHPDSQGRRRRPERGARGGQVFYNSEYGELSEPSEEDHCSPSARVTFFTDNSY

[44] = cells; conditions: Homo sapiens, JeKo-1, 72 h

T1 sequence (P06493 whole entry): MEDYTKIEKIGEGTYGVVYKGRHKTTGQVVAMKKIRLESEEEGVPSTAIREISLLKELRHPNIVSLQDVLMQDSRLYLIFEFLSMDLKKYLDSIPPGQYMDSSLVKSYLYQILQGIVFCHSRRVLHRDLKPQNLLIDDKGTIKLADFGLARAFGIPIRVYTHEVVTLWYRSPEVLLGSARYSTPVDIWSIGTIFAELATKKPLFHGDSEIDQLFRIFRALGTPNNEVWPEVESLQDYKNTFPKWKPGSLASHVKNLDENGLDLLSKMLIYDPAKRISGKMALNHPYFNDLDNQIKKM

SMILES: O=C1NC(=O)c2c1c1c3ccccc3n3c1c1c2c2ccccc2n1C1CCC3O1
- IC50 [1]: 250 nM

- IC50 [2]: 50 nM
- IC50 [3]: 380 nM
SMILES: O=C1C(Cl)=C(N2C(=O)CCC2=O)C(=O)c2ccccc21

- IC50 [4]: 300000 nM
SMILES: CN(C)c1ncnc2nc[nH]c12 [DIMETHYLADENINE]

SMILES: CSc1nc(-c2ccc(F)cc2)c(-c2ccnc(NC(C)c3ccccc3)c2)[nH]1 (racemic)
- IC50 [5]: 39 nM

SMILES: O=C1Nc2ccccc2/C1=C/c1cnc[nH]1
- inhibition at 10 µM [6]: 30%

SMILES: NCCNc1ncc(C(N)=O)c(Nc2cccc(C(F)(F)F)c2)n1
- IC50 [7]: 11200 nM
- IC50 [8]: 460 nM
- IC50 [9]: 22600 nM

- IC50 [10]: 240 nM
SMILES: COc1cc2ncnc(Nc3ccc(NC(=O)c4ccccc4)cc3)c2cc1OC [ANILINOQUINAZOLINE1]

- IC50 [11]: 5 nM
SMILES: O=C1Nc2ccc(S(=O)(=O)O)cc2/C1=C1/Nc2ccccc2/C1=N\O

SMILES: CCCNC(=O)Nc1ccc(Oc2ncnc3cc(OC)c(OC)cc23)cc1Cl [KRN-633]
- IC50 [12]: 4330 nM
- IC50 [13]: 970 nM

- IC50 [14]: 7640 nM
- IC50 [15]: 63 nM
SMILES: O=C(Nc1cccc(Nc2cc(Nc3cccc(C(F)(F)F)c3)ncn2)c1)C1CC1

- Ki [16]: 24 nM
SMILES: Cc1cc(Nc2nc(-c3ccccc3)nc3ccccc23)n[nH]1

- IC50 [17]: 300 nM
SMILES: O=c1c2ccccc2[nH]c(=S)n1CCN1CCC(=C(c2ccc(F)cc2)c2ccc(F)cc2)CC1 [DIACYLGLYCEROL KINASE INHIBITOR II]

- IC50 [18]: 25000 nM
SMILES: Cn1cnc2c(NCc3ccccc3)nc(NCCO)nc21 [OLOMOUCINE]

- IC50 [17]: 2800 nM
SMILES: Cc1nc2sccn2c(=O)c1CCN1CCC(=C(c2ccccc2)c2ccc(F)cc2)CC1

- IC50 [19]: > 10000 nM
- IC50 [11]: > 10000 nM
SMILES: COc1cc2c(cc1OC)-c1n[nH]c(Nc3cccc(F)c3)c1C2

- IC50 [20]: 130 nM
- IC50 [21]: 20 nM
SMILES: CN(C)S(=O)(=O)c1ccc2c(c1)/C(=C/c1cc3c([nH]1)CCCC3)C(=O)N2

- Ki [22]: 54000 nM
- Ki [23]: 32000 nM
SMILES: O=S(=O)(c1cccc2c(Cl)cccc12)N1CCCNCC1

- IC50 [24]: 220 nM
- IC50 [25]: > 10000 nM
- IC50 [26]: 2030 nM
- IC50 [27]: 180 nM
- IC50 [28]: > 10000 nM
- IC50 [29]: > 10000 nM
SMILES: N#C/C(=C(/N)Sc1ccc(N)cc1)c1ccccc1C(F)(F)F

- IC50 [12]: 300 nM
- IC50 [30]: ≥ 10000 nM
- IC50 [31]: ≥ 10000 nM
- IC50 [32]: ≥ 10000 nM
SMILES: c1ccc(-c2n[nH]c3c2oc2ccccc23)cc1

SMILES: NC(=O)c1ccc2[nH]c(-c3ccc(Oc4ccc(Cl)cc4)cc3)nc2c1
- EC50 [33]: 7600 nM
- EC50 [34]: 3000 nM

SMILES: CCCCc1c(-c2ccc(O)cc2)[nH]c2nccnc12 [ALOISINE A]
- IC50 [16]: 500 nM
- IC50 [25]: 3000 nM
- IC50 [35]: 10500 nM
- IC50 [36]: 7000 nM

- IC50 [37]: 3000 nM
SMILES: O=C1NC(=O)c2c1c1c3ccccc3[nH]c1n1cncc21 [ISOGRANULATIMIDE]

- IC50 [38]: 2000 nM
SMILES: Cc1ccc(NC(=O)c2cccc(N(C)C)c2)cc1NC(=O)c1ccc(O)cc1

SMILES: CCOc1ccc(/C=C2/SC(=O)N(CCN)C2=O)cc1 [HIAZOLIDINEDIONE1]
- IC50 [39]: ≤ 25000 nM
- IC50 [40]: ≤ 25000 nM

SMILES: COc1ccc(Cl)cc1NC(=O)Nc1cc(C)nc2ccccc12
- IC50 [41]: 12000 nM
- IC50 [42]: < 1000 nM

SMILES: N#CCCc1ccc2c(c1)-c1[nH]c3ccc([N+](=O)[O-])cc3c1CC(=O)N2 [ALSTERPAULLONE 2]
- IC50 [43]: 1000 nM

SMILES: CC[C@H](CO)Nc1nc(NCc2ccccc2)c2ncn(C(C)C)c2n1 [SELICICLIB]
- IC50 [44]: 25000 nM
